The target in data set [1] is T1, CYP2A6 (Homo sapiens, UniProt P11509).
T1 construct: With a mixed liver microsome of a healthy individual as a research object; from tissue; host or cells: mixed (pooled) human liver microsomes of healthy individuals
The experiment in a line: Determination of selectivity of a CYP2E1 inhibitor: CYP2A6. The following applies: mixed human liver microsome, 2.5 μM coumarin probe; read-out: IC50 for 2A6 inhibition. The data set is classed as biochemical. From the text:
With a mixed liver microsome of a healthy individual as a research object, probe drugs CYP1A2, CYP2A6, CYP2B6, CYP2C8, CYP2C9, CYP2C19, CYP2D6, CYP2E1, and CYP3A4 were selected to determine an in vitro inhibitory effect of an inhibitor to be tested on the metabolism of the probe drugs CYP1A2, CYP2A6, CYP2B6, CYP2C8, CYP2C9, CYP2C19, CYP2D6, CYP2E1, and CYP3A4 for the mixed liver microsome of the healthy human, and the selectivity of the inhibitor to be tested for a CYP2E1 inhibitory effect was evaluated.
The CYP1A2 probe is 6.25 μM to 800 μM phenacetin or 27.5 μM to 12,520 μM caffeine; • the CYP2A6 probe is 0.156 μM to 20 μM coumarin or 12.5 μM to 2,000 μM nicotine; • the CYP2B6 probe is 7.8 μM to 500 μM bupropion or 0.25 mM to 30 mM cyclophosphamide; • the CYP2C8 probe is 2.5 μM to 80 μM paclitaxel or 0.125 μM to 128 μM amodiaquine; • the CYP2C9 probe is 31.25 μM to 2,000 μM tolbutamide or 0.1 μM to 200 μM diclofenac; • the CYP2C19 probe is 3.9 μM to 500 μM omeprazole or 1.95 μM to 1,000 μM mephenytoin; • the CYP2D6 probe is 0.625 μM to 96 μM dextromethorphan or 0.0195 μM to 80 μM propafenone; and • the CYP3A4 probe is 0.39 μM to 50 μM midazolam or 1.98 μM to 1,000 μM testosterone.
An incubation system in a total volume of 100 μL was adopted, including a substrate, an inhibitor of different concentrations, a liver microsomal protein, and PBS. […]
On the technique in general: Liver microsomes are vesicles of endoplasmic reticulum, rich in cytochrome P450 enzymes.

The subject of data set [2] is LPS-induced acute lung injury (ALI) in mice. In words: LPS-induced mouse lung injury. Format: in vivo, C57BL/6N mouse. The protocol: Experimental method: A C57BL/6N mouse pulmonary fibrosis model was established through intratracheal instillation with 8 mg/kg LPS. An SMI0 intervention group was divided into a low-dose group and a high-dose group, which were intragastrically administered with the compound SMI0 respectively at 30 mg/kg and 90 mg/kg every day from three days before modeling until 6 h before the end of the modeling (control group, n=8; model group, n=8; and SMI0 compound high-dose group, n=8). At the end of the experiment, a body weight of mice in each group was recorded, blood was collected from the orbit, the mice were sacrificed, and lung tissues were collected and weighed. The left lungs were fixed in 4% formalin and subjected to HE staining.
Experimental method: A neutrophil level in a mouse lung tissue was evaluated through immunohistochemistry (IHC) staining, and an immunostaining-positive area percentage was quantitatively evaluated by Image-Pro Plus software. RNA of a mouse lung tissue was extracted by a kit method, and expression levels of TNF-α and IL-1β in lung tissues of mice were determined by RT-PCR.

The subject of data set [3] is GL261 cells / astrocytes. In words: GL261 cells co-cultivated with M2 astrocytes. The following applies: SMI0 50 μmol/L vs M2 astrocyte co-cultivation group, P<0.05. The data set is classed as cell-based, mouse. The protocol: Experimental method: 10 1-2 d newborn C57BL/6 WT mice and 6 CYP2E1^−/− mice were taken, primary microglial cells and astrocytes were collected and inoculated into 6-well plates, and 24 h later, culture supernatants were taken and co-cultivated with glioma cells. Experimental groups: control group; M2 model group; high-concentration, medium-concentration, and low-concentration SMI0 (50 μmol/L, 12.5 μmol/L, and 3.1 μmol/L) groups; and CYP2E1 gene-knockout group. 24 h later, supernatants were discarded; and […] and IL-13 each were added at 20 ng/mL to induce the transformation of microglial cells into the M2 type in the M2 model group and the high-concentration, medium-concentration, and low-concentration SMI0 groups, and different concentrations of SMI0 (50 μmol/L, 12.5 μmol/L, and 3.1 μmol/L) were also added in the intervention groups. The proliferation of glioma cells was determined by a CCK8 method, and an apoptosis proportion was determined by an Annexin V-FITC-PI apoptosis staining kit.

Data set [4] relates to ovarian cancer ID-8 cell line in situ transplanted tumor. In words: Mouse ovarian cancer in situ transplanted tumor model (ID-8). The data set is classed as in vivo, C57/6 mouse. The following applies: as high as; SMI0 30 mg/kg ig daily, 60-day modeling. The protocol:
Experimental method: A female C57/6 mouse ovarian cancer in situ transplanted tumor model was constructed with a murine ovarian cancer ID-8 cell line at a cell concentration of 1×10^6. A model group and an SMI0 intervention group were set for the experiment. The intervention group was intragastrically administered with the SMI0 compound at 30 mg/kg every day from three days before modeling to the end of the 60-day modeling (model group, n=15; and SMI0 compound (30 mg/kg) group, n=12). At the end of the experiment, blood was collected from the orbit, a body weight was measured, then the mice each were sacrificed, and ovary tissues and tumor tissues were collected. Ovary tissue specimens were subjected to HE staining, and then the ovary tumor tissue and tumorigenesis of mice in each group were observed.

Where [5] appears, read: RT-PCR, SMI0 high-dose group vs model group, P<0.05.

pIC50: −log10 of the molar value.

T1 sequence (P11509 whole entry): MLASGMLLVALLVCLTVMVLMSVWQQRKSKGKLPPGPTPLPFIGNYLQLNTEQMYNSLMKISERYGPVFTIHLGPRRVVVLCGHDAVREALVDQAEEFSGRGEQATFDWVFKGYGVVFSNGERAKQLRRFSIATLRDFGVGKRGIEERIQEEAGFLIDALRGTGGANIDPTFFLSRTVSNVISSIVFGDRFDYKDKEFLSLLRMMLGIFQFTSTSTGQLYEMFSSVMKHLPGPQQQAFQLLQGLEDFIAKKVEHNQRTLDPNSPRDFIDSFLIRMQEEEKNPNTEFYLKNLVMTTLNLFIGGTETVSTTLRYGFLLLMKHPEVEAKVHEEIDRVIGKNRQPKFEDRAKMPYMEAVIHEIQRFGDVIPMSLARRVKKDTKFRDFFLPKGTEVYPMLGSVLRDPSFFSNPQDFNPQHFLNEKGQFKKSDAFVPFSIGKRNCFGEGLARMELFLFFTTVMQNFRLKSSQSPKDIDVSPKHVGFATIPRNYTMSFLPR

Consider `CC(=O)c1scnc1C` [SMI0], for which the pIC50 in data set [1] was 4.12. Further, in data set [2] (setting [5]), the “expression level of IL-1β in the lung tissue” value is “significantly reduced” and the “expression level of TNF-α in the lung tissue” value is listed as “significantly reduced”. For the same compound, the lung injury score entry in data set [2] (SMI0 administration group vs model group) is recorded as “significant reduced”. Besides, the “MPO immunostaining-positive area percentage in lung tissue” value in data set [2] (SMI0 high-dose group vs model group, P<0.05) is “significantly reduced”. Moreover, the lung index result in data set [2] (both SMI0 low-dose (30 mg/kg) and high-dose (90 mg/kg) groups, ig daily, vs model group, P<0.01) was “significantly reduced”. In data set [3], the “proliferation activity of GL261 cells” value is listed as “significantly weakened”. Moreover, in data set [4], the “ascites weight inhibition rate” value turned out to be 76.40% and the “tumor proliferation inhibition rate” value was 63.14%.

The term pIC50 denotes the IC50 on a negative log10 scale, so that one unit is a factor of ten.

The record behind these values is patent publication US20230277508A1, “USE OF COMPOUND AS CYP2E1 INHIBITOR” (SHANGHAI LING XI BIOTECHNOLOGY DEVELOPMENT CO., LTD., priority 2020, published 2023).
